Like-named read-outs stand apart in the source and are kept apart here.
Tests used:
diabetic (ob/ob) mice = experiment: Blood glucose lowering in diabetic (ob/ob) mice; format: in vivo; details: Mus musculus, po
Human recombinant PTP1B = biological target: T1, Human recombinant PTP1B (Homo sapiens, UniProt P18031); experiment: Inhibition of tri-phosphorylated insulin receptor dodecaphosphopeptide dephosphorylation by hPTP1B (malachite green); format: biochemical; details: compound at 2.5 uM
T1 construct: made in house
T1 sequence (P18031 1-435): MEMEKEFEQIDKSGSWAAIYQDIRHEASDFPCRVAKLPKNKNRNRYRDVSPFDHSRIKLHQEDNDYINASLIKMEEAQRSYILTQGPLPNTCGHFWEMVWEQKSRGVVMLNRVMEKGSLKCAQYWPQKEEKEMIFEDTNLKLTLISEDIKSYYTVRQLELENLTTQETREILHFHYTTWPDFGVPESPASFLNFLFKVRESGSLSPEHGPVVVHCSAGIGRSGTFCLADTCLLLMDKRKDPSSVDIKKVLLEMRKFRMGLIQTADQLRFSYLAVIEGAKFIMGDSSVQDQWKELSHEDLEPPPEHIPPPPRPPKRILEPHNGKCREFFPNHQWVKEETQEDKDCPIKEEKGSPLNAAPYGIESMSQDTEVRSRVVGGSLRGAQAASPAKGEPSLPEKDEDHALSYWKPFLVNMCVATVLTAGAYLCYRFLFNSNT

[1] = read-out: % Change Insulin from Vehicle

Row | percent of phosphatase control (change) at 2.5 uM (Human recombinant PTP1B) | Compound | change in vivo at 100 mg/kg (diabetic (ob/ob) mice; 96 h, plasma glucose on Day 4, 7 or 14, read-out: % Change Glucose from Vehicle) [%] | change in vivo at 100 mg/kg (diabetic (ob/ob) mice; [1]) [%]
1 | – | CC1(COc2ccc(CC3SC(=O)NC3=O)cc2)CCCCC1 (centres unmarked) [Ciglitazone, 5-(4-(1-methylcyclohexylmethoxy)benzyl)-2,4-dione] | -43 | -39
2 | −15 (2.5 uM) % | O=C(O)COc1ccc(-c2ccc(-c3c(Br)oc4ccccc34)cc2)cc1 [Example 6, [4′-(2-Bromo-benzofuran-3-yl)-biphenyl-4-yloxy]-acetic acid] | – | –
3 | −58 (2.5 uM) % | O=C(O)C(Cc1ccccc1)Oc1ccc(-c2ccc(-c3c(Br)oc4ccccc34)cc2)cc1 (centres unmarked) [Example 7, 2-[4′-(2-Bromo-benzofuran-3-yl)-biphenyl-4-yloxy]-3-phenyl-propionic acid] | – | –
4 | – | O=C(c1ccccc1)c1oc2ccccc2c1-c1ccc(-c2ccc(OC(Cc3ccccc3)C(=O)O)cc2)cc1 (centres unmarked) [Example 14, 2-[4′-(2-Benzoyl-benzofuran-3-yl)-biphenyl-4-yloxy]-3-phenyl-propionic acid] | – | 19.8
5 | −36 (2.5 uM) % | COC(=O)[C@H](Cc1ccccc1)Oc1ccc(-c2ccc(-c3c(Cc4ccccc4)oc4ccccc34)cc2)cc1 [Example 23, (2S)-2-[4′-(2-Benzyl-benzofuran-3-yl)-biphenyl-4-yloxy]-3-phenyl-propionic acid methyl ester] | – | –
6 | −41 (2.5 uM) % | O=C(O)[C@H](Cc1ccccc1)Oc1ccc(-c2ccc(-c3nc4ccccc4n3Cc3ccccc3)cc2)cc1 [Example 70, (2S)-2-[4′-(1-Benzyl-1H-benzimidazol-2-yl)-biphenyl-4-yloxy]-3-phenyl-propionic acid] | – | –
7 | −43 (2.5 uM) % | CC(=O)c1ccc(-c2ccc(-c3ccc(O[C@@H](Cc4ccccc4)C(=O)[O-])cc3)cc2)s1.[Na+] [Example 71, (2S)-2-[4′-(5-acetyl-thiophen-2-yl)-biphenyl-4-yloxy]-3-phenyl-propionic acid sodium salt] | – | –
